Data reported in PMC7385124, “The molecular basis of thioalcohol production in human body odour” (Scientific Reports, 2020).

What was measured:
SaPatB = target: T1, SaPatB (Streptococcus anginosus, UniProt A6BMJ3); test: DTNB thiol release, A412, Michaelis-Menten; type: biochemical; conditions: pH 7.8, 50 mM KPi, 200 mM NaCl, 37 °C, 0.4 mM DTNB
T1 construct: gene lcd; full length; expressed in E. coli MC1061
T1 sequence (A6BMJ3 1-388): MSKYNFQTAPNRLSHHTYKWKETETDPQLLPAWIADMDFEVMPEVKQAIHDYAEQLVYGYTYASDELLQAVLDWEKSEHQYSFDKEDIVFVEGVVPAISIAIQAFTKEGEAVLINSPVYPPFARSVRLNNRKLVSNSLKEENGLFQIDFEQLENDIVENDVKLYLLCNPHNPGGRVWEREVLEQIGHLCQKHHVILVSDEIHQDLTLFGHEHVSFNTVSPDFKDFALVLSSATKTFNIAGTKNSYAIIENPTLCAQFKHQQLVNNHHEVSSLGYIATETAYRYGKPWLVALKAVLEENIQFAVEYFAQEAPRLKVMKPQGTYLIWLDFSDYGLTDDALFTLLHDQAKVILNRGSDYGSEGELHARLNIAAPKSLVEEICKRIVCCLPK

BsPatB [1] = target: T2, BsPatB (Bacillus subtilis, UniProt Q08432); test: DTNB thiol release, A412, Michaelis-Menten; type: biochemical; conditions: pH 7.8, 50 mM KPi, 200 mM NaCl, 37 °C, 0.4 mM DTNB
T2 construct: gene patB; full length; N-terminal MGGGFA and C-terminal ENLYFQG-His10; expressed in E. coli MC1061; homodimer, PLP on Lys234

ShPatB [2] = target: T3, ShPatB (Staphylococcus hominis, UniProt Z9H0M2I6C5); test: DTNB thiol release, A412, Michaelis-Menten; type: biochemical; conditions: pH 7.8, 50 mM KPi, 200 mM NaCl, 37 °C, 0.4 mM DTNB
T3 construct: full length; pBADcLIC, expressed in E. coli MC1061; homodimer, PLP on Lys246
T3 sequence (Z9H0M2I6C5 7-404): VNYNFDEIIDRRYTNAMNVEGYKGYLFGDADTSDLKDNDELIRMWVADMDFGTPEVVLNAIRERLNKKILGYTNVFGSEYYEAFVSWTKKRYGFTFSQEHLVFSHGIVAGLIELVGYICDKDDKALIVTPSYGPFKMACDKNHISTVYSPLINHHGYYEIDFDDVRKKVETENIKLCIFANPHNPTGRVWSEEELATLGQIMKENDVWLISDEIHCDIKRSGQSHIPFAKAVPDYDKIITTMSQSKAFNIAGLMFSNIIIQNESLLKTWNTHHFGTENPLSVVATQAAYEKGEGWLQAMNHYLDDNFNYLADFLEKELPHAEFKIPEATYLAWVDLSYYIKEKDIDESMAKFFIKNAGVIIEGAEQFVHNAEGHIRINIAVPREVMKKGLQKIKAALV

EcMalY = target: T4, EcMalY (Escherichia coli, UniProt P23256); test: DTNB thiol release, A412, Michaelis-Menten; type: biochemical; conditions: pH 7.8, 50 mM KPi, 200 mM NaCl, 37 °C, 0.4 mM DTNB
T4 construct: gene malY; full length; N-terminal MGGGFA and C-terminal ENLYFQG-His10; expressed in E. coli MC1061

SeMetC = target: T5, SeMetC (Staphylococcus epidermidis, UniProt Q5HRU7); test: DTNB thiol release, A412, Michaelis-Menten; type: biochemical; conditions: pH 7.8, 50 mM KPi, 200 mM NaCl, 37 °C, 0.4 mM DTNB
T5 construct: gene SERP0095; full length; expressed in E. coli MC1061; species of 'Se' not spelt out
T5 sequence (Q5HRU7 1-381): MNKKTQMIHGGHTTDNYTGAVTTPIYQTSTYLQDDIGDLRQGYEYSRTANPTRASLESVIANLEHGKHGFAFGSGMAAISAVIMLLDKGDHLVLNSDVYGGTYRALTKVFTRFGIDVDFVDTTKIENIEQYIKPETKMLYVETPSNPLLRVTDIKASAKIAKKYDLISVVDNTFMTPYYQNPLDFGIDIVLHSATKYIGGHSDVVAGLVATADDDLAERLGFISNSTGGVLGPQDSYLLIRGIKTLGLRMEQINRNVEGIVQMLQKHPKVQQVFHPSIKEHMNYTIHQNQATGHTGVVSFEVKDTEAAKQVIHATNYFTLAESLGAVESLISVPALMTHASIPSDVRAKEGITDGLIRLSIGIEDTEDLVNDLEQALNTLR

ShMetC = target: T6, ShMetC (Staphylococcus hominis, UniProt Z9HEU7RWP2); test: DTNB thiol release, A412, Michaelis-Menten; type: biochemical; conditions: pH 7.8, 50 mM KPi, 200 mM NaCl, 37 °C, 0.4 mM DTNB
T6 construct: full length; expressed in E. coli MC1061; species of 'Sh' not spelt out for MetC (S. haemolyticus possible)

CjAecD = target: T7, CjAecD (Corynebacterium jeikeium, UniProt Q4JWQ6); test: DTNB thiol release, A412, Michaelis-Menten; type: biochemical; conditions: pH 7.8, 50 mM KPi, 200 mM NaCl, 37 °C, 0.4 mM DTNB
T7 construct: gene aecD; full length; expressed in E. coli MC1061
T7 sequence (Q4JWQ6 1-416): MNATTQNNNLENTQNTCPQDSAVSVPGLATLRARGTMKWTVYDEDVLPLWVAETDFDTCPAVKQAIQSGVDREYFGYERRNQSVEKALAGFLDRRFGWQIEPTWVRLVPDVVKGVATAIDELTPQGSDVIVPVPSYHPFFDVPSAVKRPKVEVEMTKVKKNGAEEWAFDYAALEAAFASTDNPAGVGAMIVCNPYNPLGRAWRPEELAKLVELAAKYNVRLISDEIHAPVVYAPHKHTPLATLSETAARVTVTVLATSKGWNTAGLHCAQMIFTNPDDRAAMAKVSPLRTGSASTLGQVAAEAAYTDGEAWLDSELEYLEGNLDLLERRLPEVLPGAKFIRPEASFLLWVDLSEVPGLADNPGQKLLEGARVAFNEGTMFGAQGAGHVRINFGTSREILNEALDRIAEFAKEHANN

ShPatB [3] = target: T3, ShPatB; test: end point DTNB assay, A412; type: biochemical; conditions: 2.5 μM enzyme, 2.5 mM Cys-3M3SH; covalent to PLP, reversed by excess PLP
BsPatB [4] = target: T2, BsPatB; test: X-ray crystallography, […] Å; type: binding; conditions: covalent internal aldimine at Lys234
ShPatB [5] = target: T3, ShPatB; test: X-ray crystallography, […] Å; type: binding; conditions: covalent internal aldimine at Lys246

T2 sequence (Q08432 whole entry): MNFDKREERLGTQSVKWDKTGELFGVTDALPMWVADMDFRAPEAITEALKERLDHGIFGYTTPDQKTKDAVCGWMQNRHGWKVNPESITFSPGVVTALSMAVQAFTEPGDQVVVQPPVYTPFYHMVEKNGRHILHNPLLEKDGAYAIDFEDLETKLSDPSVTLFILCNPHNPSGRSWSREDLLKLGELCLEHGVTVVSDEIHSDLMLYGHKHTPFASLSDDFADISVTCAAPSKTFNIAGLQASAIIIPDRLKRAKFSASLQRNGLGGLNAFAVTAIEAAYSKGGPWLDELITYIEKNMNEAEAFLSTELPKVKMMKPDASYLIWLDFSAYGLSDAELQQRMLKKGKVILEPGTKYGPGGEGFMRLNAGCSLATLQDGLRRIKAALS
T4 sequence (P23256 whole entry): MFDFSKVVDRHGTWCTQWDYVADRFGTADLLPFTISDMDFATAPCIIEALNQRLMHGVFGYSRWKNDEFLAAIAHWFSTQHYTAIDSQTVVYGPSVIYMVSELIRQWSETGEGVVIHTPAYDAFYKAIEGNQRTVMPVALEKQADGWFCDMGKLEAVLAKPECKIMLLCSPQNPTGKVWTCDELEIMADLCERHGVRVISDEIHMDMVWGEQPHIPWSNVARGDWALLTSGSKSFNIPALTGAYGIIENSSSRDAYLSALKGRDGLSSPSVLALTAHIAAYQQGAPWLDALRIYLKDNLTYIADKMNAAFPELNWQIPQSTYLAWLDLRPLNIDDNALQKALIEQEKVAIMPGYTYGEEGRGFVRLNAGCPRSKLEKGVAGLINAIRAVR

CCCC(C)(CCO)SC[C@H](N)C(=O)O (some centres unmarked) [Cys-3M3SH]
KM (SaPatB): Streptococcus anginosus (SaPatB) did not discriminate between the two ligands
KM (BsPatB [1]): B. subtilis (BsPatB) and Streptococcus anginosus (SaPatB) did not discriminate between the two ligands
KM (ShPatB [2]): ShPatB exhibits selectivity towards Cys-3M3SH
KM (EcMalY): E. coli MalY (EcMalY) had higher activities against cystathionine

CC(C)(CCO)SC[C@H](N)C(=O)O [Felinine]
KM (ShPatB [2]): We also measured enzyme activity against Felinine, a close structural analog of Cys-3M3SH

N[C@@H](CCSC[C@H](N)C(=O)O)C(=O)O [cystathionine]
KM (SaPatB): Streptococcus anginosus (SaPatB) did not discriminate between the two ligands
KM (BsPatB [1]): B. subtilis (BsPatB) and Streptococcus anginosus (SaPatB) did not discriminate between the two ligands
KM (SeMetC): higher activities against cystathionine, similar to the MetC enzymes included (ShMetC and SeMetC)
KM (ShMetC): higher activities against cystathionine, similar to the MetC enzymes included (ShMetC and SeMetC)
KM (EcMalY): E. coli MalY (EcMalY) had higher activities against cystathionine
KM (CjAecD): CjAecD is selective for cystathionine over Cys-3M3SH

N[C@H]1CONC1=O [LCS, L-cycloserine]
inhibition (end point) (ShPatB [3]): Cycloserine in vitro inhibition of ShPatB with Cys-3M3SH as the substrate

Cc1ncc(COP(=O)(O)O)c(C=O)c1O [PLP, pyridoxal phosphate]
X-ray crystallography, 2.3 Å (BsPatB [4]): each subunit containing a PLP moiety covalently bound to a conserved lysine residue
X-ray crystallography, 1.6 Å (ShPatB [5]): each subunit containing a PLP moiety covalently bound to a conserved lysine residue
